{"source": "patent US20040010218A1", "about": "“Photodynamic therapy for the enhancement of vascular permeability to aid in drug delivery to diseased tissues” (priority 2002, published 2004)", "tested_on": "murine Colo-26 tumors", "test": "MR imaging of Colo-26 tumors 30 min after P-PDT", "format": "in vivo", "conditions": "P-PDT: 0.4 μmol/kg HPPH i.v., 24 h later 6 μmol/kg VBBO i.v., 3 h later 500 J/cm^2 at 619 nm; imaged 30 min after P-PDT; especially in the treated tumor", "method": "FIG. 1 is a set of MR images of Colo-26 tumors taken 30 minutes after P-PDT to the tumor on the left of each image.\nFIG. 1 illustrates the response of the vasculature in murine Colo-26 tumors to P-PDT. […] In this case, P-PDT involved i.v. injection of 0.4 μmol/kg HPPH (2-[1-hexyl-oxyethyl]-2-devinyl pyropheophoribde-a), followed 24 h later by i.v. injection of 6 μmol/kg VBBO (Victoria Blue-BO), followed 3 h later by local exposure of the tumor to 500 J/cm^2 of light at a wavelength of 619 nm. In Frame A, one can observe that the T2 weighted MRI image of the P-PDT treated tumor is markedly brighter than the control, which is believed to be due to increased water content because of enhanced edema and permeability in that tumor. Image intensity is further heightened by carbogen breathing as shown in Frame B of FIG. 1. […] Changes in signal intensity originate with the magnetic susceptibility of hemoglobin and are dependent on its oxygenation status. Oxyhemoglobin is diamagnetic, while deoxyhemoglobin is paramagnetic. The magnetic susceptibility differences between deoxyhemoglobin and surrounding tissue water create local field gradients that cause phase dispersion of nearby water protons, resulting in a loss of MR signal intensity. […]", "data": [{"smiles": "CCCCCCOC(C)c1c(C)c2cc3nc(c4c5[nH]c(cc6nc(cc1[nH]2)C(C)=C6CC)c(C)c5C(=O)C4)[C@@H](CCC(=O)O)[C@@H]3C", "note": "(stereo partly shown) [HPPH, 2-[1-hexyl-oxyethyl]-2-devinyl pyropheophoribde-a]", "values": [{"measurement": "increase in MR image intensity during carbogen breathing", "value": "up to 40%"}]}]}
